The text below walks through data of patent US20230330110A1, “HARD CAPSULE DOSAGE FORM AND USES THEREOF” (EIRGEN PHARMA LTD., priority 2020, published 2023).

One data set relates to Plasma iPTH. Nature of the data set: Repeated-dose study (Example 3): plasma iPTH-lowering response. The note with it: EAP2. The class given is in vivo, human. The method, then:
(§1) A study is carried out with repeated-dosing of ERC (Rayaldee® (calcifediol) extended-release capsules), IR calcifediol (“IRC”), high-dose cholecalciferol (“HDC”), and paricalcitol plus low-dose cholecalciferol (“PLDC”) in adult patients with secondary hyperparathyroidism (SHPT), stage 3 or 4 chronic kidney disease (CKD) and vitamin D insufficiency.
(§2) This is an open-label study to gather comparative data evaluating the ERC, IR calcifediol, high-dose cholecalciferol, and paricalcitol plus low-dose cholecalciferol. Eligible subjects were randomized 1:1:1:1 to receive 8 weeks of treatment with one of the listed study medications with a sufficient quantity of a non-alcoholic beverage to enable swallowing of the capsules: • 1) ERC capsules 60 μg once daily at bedtime, except on Days 1 and 29 when dosing occurred in the morning before breakfast in the phase 1 unit; • 2) IR calcifediol 266 μg before breakfast on the mornings of Day 1 and Day 29 in the phase 1 unit; • 3) cholecalciferol 300,000 IU (high-dose) before breakfast on the mornings of Day 1 and Day 29 in the phase 1 unit; and • 4) paricalcitol 1 μg (possibly increasing to 2 μg per day at Day 29) plus cholecalciferol 800 IU (low-dose) once daily in the morning before breakfast, except on the mornings of Days 1 and 29 when dosing occurred before breakfast in the phase 1 unit. […]

Data set [1] is described as follows: Repeated-dose study in SHPT, stage 3 or 4 CKD, vitamin D insufficiency: serum total 25-hydroxyvitamin D. Type of data set: in vivo, human. To be noted: target of 30 ng/mL; end of second month of treatment (EAP2). The method, then:
as §1, §2

A short description of data set [2]: Stability of calcifediol in acidic dissolution media (Example 4). Type of data set: physicochemical. To be noted: pH 1.2 medium, 37° C., after 6 hours. The method, then: The stability of calcifediol was tested in acidic dissolution media at ambient/light conditions and also in dark conditions, at 37° C., 20° C., and 10° C., using 30 μg calcifediol extended release capsules.

As for `C=C1CC[C@H](O)C/C1=C/C=C1\CCC[C@]2(C)[C@@H]([C@H](C)CCCC(C)C)CC[C@@H]12` [HDC, cholecalciferol], the “plasma iPTH response rate” value in the data set with Plasma iPTH (response = ≥20% reduction from pre-treatment baseline) is 37.5%; in the data set with Plasma iPTH (response = ≥30% reduction from pre-treatment baseline), 25.0%. Further, in data set [1], the “serum total 25-hydroxyvitamin D response rate” value was 44%.
`C=C1CC[C@H](O)C/C1=C/C=C1\CCC[C@]2(C)[C@@H]([C@H](C)CCCC(C)(C)O)CC[C@@H]12` [calcifediol]: the degradation result in data set [2] is recorded as “about 90%”.
